In publication PMC3242641 (European journal of medicinal chemistry, 2011):

Experiments:
wild-type HBV = assay: Anti-HBV activity, HepG2 AD38 system; format: cell-based; details: read-out: Anti-HBV activity EC50
HIV-1 = format: cell-based
PBM cells [1] = tested on: PBM cells
WT HIV-1 RT [2] = molecular target: T1, WT HIV-1 RT (Human immunodeficiency virus type 1 group M subtype B, UniProt P04585); format: biochemical
human PBM cells = details: 4 h at 50 μM, PHA activated human PBM cells, 37 °C
PBM cells [3] = assay: Cytotoxicity in PBM cells; details: cell type not named in the sentence (PBM, CEM and Vero were tested)
WT HIV-1 RT [4] = molecular target: T1, WT HIV-1 RT; details: read-out: K, dNTP; cited from earlier work

Compound: 9-(3-Azido-2,3-dideoxy-β-L-ribofuranosyl)-2-fluoro-6-aminopurine [Compound 26]
- IC50 (CEM cells): > 100 µM
- EC50 (wild-type HBV): > 100 µM
- EC90 (HIV-1; read-out: Anti-HIV activity EC90): > 100 µM
- IC50 (Vero cells): > 100 µM
- IC50 (PBM cells [1]): > 100 µM

Compound: Nc1ccn([C@@H]2CS[C@H](COP(=O)(O)OP(=O)(O)OP(=O)(O)O)O2)c(=O)n1 [Compound 3TC-TP]
- Incorporation, fold better than the L-3′-azido-ddNTPs (WT HIV-1 RT [2]): 12-500 fold

Compound: [N-]=[N+]=N[C@@H]1C[C@@H](n2cnc3c(Cl)ncnc32)O[C@H]1CO [Compound 7, 9-(3-Azido-2,3-dideoxy-β-L-ribofuranosyl)-6-chloro-9H-purine]
- Amount of intracellular nucleoside triphosphate (TP) detected (human PBM cells): no detectable TPs

Compound: COc1ncnc2c1ncn2[C@@H]1C[C@@H](N=[N+]=[N-])[C@H](CO)O1 [Compound 9, 9-(3-Azido-2,3-dideoxy-β-L-ribofuranosyl)-6-methoxyl-9H-purine]
- Amount of intracellular nucleoside triphosphate (TP) detected (human PBM cells): below the level of detection

Compound: CCOC(=O)[C@H](C)NP(=O)(OC[C@@H]1O[C@H](n2cnc3c(N)ncnc32)C[C@H]1N=[N+]=[N-])Oc1ccccc1 (stereo partly drawn) [Compound 11, 3′-Azido-2′, 3′-dideoxy-β-L-adenosine-5′-O-[phenyl-(ethoxy-L-alaninyl)]-phosphate]
- Increase in anti-HIV activity versus 10 (HIV-1): 45 fold

Compound: CNc1ncnc2c1ncn2[C@@H]1C[C@@H](N=[N+]=[N-])[C@H](CO)O1 [Compound 12, 9-(3-Azido-2,3-dideoxy-β-L-ribofuranosyl)-6-methylamino-9H-purine]
- Amount of intracellular nucleoside triphosphate (TP) detected (human PBM cells): below the level of detection

Compound: CCOC(=O)[C@H](C)NP(=O)(OC[C@@H]1O[C@H](n2cnc3c(O)nc(N)nc32)C[C@H]1N=[N+]=[N-])Oc1ccccc1 (stereo partly drawn) [Compound 16, 3′-Azido-2′, 3′-dideoxy-β-L-guanosine-5′-O-[phenyl-(ethoxy-L-alaninyl)]-phosphate]
- Anti-HIV-1 activity, in words (HIV-1): inactive

Compound: [N-]=[N+]=N[C@@H]1C[C@@H](n2cnc3c(Cl)nc(N)nc32)O[C@H]1CO [Compound 17, 9-(3-Azido-2,3-dideoxy-β-L-ribofuranosyl)-2-amino-6-chloropurine]
- Amount of intracellular nucleoside triphosphate (TP) detected (human PBM cells): no detectable TPs

Compound: CCOC(=O)[C@H](C)NP(=O)(OC[C@@H]1O[C@H](n2cnc3c(Cl)nc(N)nc32)C[C@H]1N=[N+]=[N-])Oc1ccccc1 (stereo partly drawn) [Compound 18, 9-(3-Azido-2,3-dideoxy-β-L-ribofuranosyl)-2-amino-6-chloropurine-5-O-[phenyl-(ethoxy-L-alaninyl)]-phosphate]
- Amount of intracellular intact prodrug detected (human PBM cells): 12 fmol/10^6 cells

Compound: CCOC(=O)[C@H](C)NP(=O)(OC[C@@H]1O[C@H](n2cnc3c(N)nc(N)nc32)C[C@H]1N=[N+]=[N-])Oc1ccccc1 (stereo partly drawn) [Compound 22, 9-(3-Azido-2,3-dideoxy-β-L-ribofuranosyl) -2,6-diaminopurine-5-O-(phenyl-[ethoxyl-L-alaninyl])-phosphate]
- Observed toxicity (no toxicity up to) (PBM cells [3]): > 100 µM

Compound: Cc1cn([C@H]2C[C@H](N=[N+]=[N-])[C@@H](CO)O2)c(=O)[nH]c1=O [Compound 27, 3′-Azido-2′-3′-dideoxy-β-L-thymidine]
- Anti-HIV-1 activity, in words (HIV-1): inactive

Compound: CCOC(=O)[C@H](C)NP(=O)(OC[C@@H]1O[C@H](n2cc(C)c(=O)[nH]c2=O)C[C@H]1N=[N+]=[N-])Oc1ccccc1 (stereo partly drawn) [Compound 28, 1-(3′-Azido-2′, 3′-dideoxy-β-L-thymidine)-O-(phenyl-[ethoxyl-L-alaniny])-phosphate]
- Anti-HIV-1 activity, in words (HIV-1): inactive

Compound: Nc1ccn([C@H]2C[C@H](O)[C@@H](COP(=O)(O)OP(=O)(O)OP(=O)(O)O)O2)c(=O)n1 [dCTP]
- Kd (WT HIV-1 RT [4]): 1.1 ± 0.4 µM
